Assay results published in patent US9006177B2 (Advinus Therapeutics Limited, priority 2010, dated 2015).

Target: T1, Human A2A adenosine receptor (Homo sapiens, UniProt P29274)
T1 construct: expressed in transfected cells
Test: Radioligand binding for A2A adenosine receptor ([3H]-ZM-241385 competition, HEK-A2A membranes)
Conditions: HEK-293 membranes, 2 nM [3H]-ZM-241385, read-out: A2A Cell based Functional Ki*
Excerpt: […]

T1 sequence (P29274 whole entry): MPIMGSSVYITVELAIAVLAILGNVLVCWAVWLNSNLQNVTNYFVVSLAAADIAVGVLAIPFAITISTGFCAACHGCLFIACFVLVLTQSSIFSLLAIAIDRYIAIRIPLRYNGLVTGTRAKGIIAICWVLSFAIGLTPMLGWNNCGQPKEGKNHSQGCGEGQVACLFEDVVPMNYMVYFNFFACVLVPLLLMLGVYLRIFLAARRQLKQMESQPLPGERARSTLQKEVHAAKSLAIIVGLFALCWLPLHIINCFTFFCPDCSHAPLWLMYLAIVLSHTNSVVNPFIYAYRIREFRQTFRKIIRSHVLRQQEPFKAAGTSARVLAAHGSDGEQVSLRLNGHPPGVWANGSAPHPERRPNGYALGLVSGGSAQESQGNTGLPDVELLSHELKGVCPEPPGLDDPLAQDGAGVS

Structure (SMILES)	Ki
Cn1c(=O)n(CCN2CCN(CC3CC3)CC2)c2nc(N)n3nc(-c4ccco4)nc3c21 [Example A36, 5-Amino-3-[2-[4-(cyclopropylmethyl)piperazin-1-yl]ethyl]-8-(2-furyl)-1-methyl-[1,2,4]triazolo[5,1-f]purin-2-one]	10 to 100 nM
Cc1cnc2c(c1)CN(CCn1c(=O)n(C)c3c1nc(N)n1nc(-c4ccco4)nc31)CC2 [Example A42, 5-Amino-8-(2-furyl)-1-methyl-3-[2-(3-methyl-7,8-dihydro-5H-1,6-naphthyridin-6-yl)ethyl]-[1,2,4]triazolo[5,1-f]purin-2-one]	0.1 to 10 nM
COCCOc1ccc(N2CCN(CCn3c(=O)n(C)c4c3nc(N)n3nc(-c5ccco5)nc43)CC2)c(F)c1 [Example A31]	0.1 to 10 nM
Cn1c(=O)n(CCN2CCN(C(=O)CC3CC3)CC2)c2nc(N)n3nc(-c4nccs4)nc3c21 [Example M3, 5-Amino-3-[2-[4-(2-cyclopropylacetyl)piperazin-1-yl]ethyl]-1-methyl-8-thiazol-2-yl-[1,2,4]triazolo[5,1-f]purin-2-one]	10 to 100 nM
Nc1nc2c(c3nc(-c4ccco4)nn13)n(CC(F)(F)F)c(=O)n2CCN1CCN(c2ccc(F)cc2F)CC1 [Example H2, 5-Amino-3-{2-[4-(2,4-difluoro-phenyl)-piperazin-1-yl]-ethyl}-8-furan-2-yl-1-(2,2,2-trifluoro-ethyl)-1,3-dihydro-[1,2,4]triazolo[5,1-f]purin-2-one]	0.1 to 10 nM
COc1ccc(CCn2c(=O)n(C)c3c2nc(N)n2nc(-c4ccco4)nc32)cc1 [Example A57]	0.1 to 10 nM
CCn1c(=O)n(CCn2cc(-c3ccc(F)cc3F)cn2)c2nc(N)n3nc(-c4ccco4)nc3c21 [Example D3]	0.1 to 10 nM
COCCOc1ccc(N2CCN(CCn3c(=O)n(C)c4c3nc(N)n3nc(-c5nccs5)nc43)CC2)cc1 [Example M1, 5-Amino-3-[2-[4-[4-(2-methoxyethoxy)phenyl]piperazin-1-yl]ethyl]-1-methyl-8-thiazol-2-yl-[1,2,4]triazolo[5,1-f]purin-2-one]	0.1 to 10 nM
Cc1cnc2c(c1)CN(CCn1c(=O)n(C)c3c1nc(N)n1nc(-c4nccs4)nc31)CC2 [Example M6, 5-Amino-1-methyl-3-[2-(3-methyl-7,8-dihydro-5H-1,6-naphthyridin-6-yl)ethyl]-8-thiazol-2-yl-[1,2,4]triazolo[5,1-f]purin-2-one]	0.1 to 10 nM
CN(C)S(=O)(=O)N1CCN(CCn2c(=O)n(C)c3c2nc(N)n2nc(-c4ccco4)nc32)CC1 [Example A38, 4-[2-[5-Amino-8-(2-furyl)-1-methyl-2-oxo-[1,2,4]triazolo[5,1-f]purin-3-yl]ethyl]-N,N-dimethyl-piperazine-1-sulfonamide]	0.1 to 10 nM
Cn1c(=O)n(CCN2CCN(C(=O)CC3CC3)CC2)c2nc(N)n3nc(-c4ccco4)nc3c21 [Example A63, 5-Amino-3-[2-[4-(2-cyclopropylacetyl)piperazin-1-yl]ethyl]-8-(2-furyl)-1-methyl-[1,2,4]triazolo[5,1-f]purin-2-one]	10 to 100 nM
Nc1nc2c(c3nc(-c4ccco4)nn13)n(CC1CC1)c(=O)n2CCn1cc(C(=O)O)cn1 [Example E1, 1-[2-[5-Amino-1-(cyclopropylmethyl)-8-(2-furyl)-2-oxo-[1,2,4]triazolo[5,1-f]purin-3-yl]ethyl]pyrazole-4-carboxylic acid]	0.1 to 10 nM
CCn1c(=O)n(CCN2CCN(c3ccc(F)cc3F)CC2)c2nc(N)n3nc(-c4ccco4)nc3c21 [Example G2]	10 to 100 nM
Cn1c(=O)n(CCN2CCN(C(=O)C3CC3)CC2)c2nc(N)n3nc(-c4ccco4)nc3c21 [Example A62, 5-Amino-3-[2-[4-(cyclopropanecarbonyl)piperazin-1-yl]ethyl]-8-(2-furyl)-1-methyl-[1,2,4]triazolo[5,1-f]purin-2-one]	0.1 to 10 nM

Next, values leading:

Ki	Structure (SMILES)
0.1 to 10 nM	Cn1c(=O)n(CCN2CCN(c3ccc(OC4CCOC4)cc3)CC2)c2nc(N)n3nc(-c4ccco4)nc3c21 (stereo not drawn) [Example A39, 5-Amino-8-(2-furyl)-1-methyl-3-[2-[4-(4-tetrahydrofuran-3-yloxyphenyl)piperazin-1-yl]ethyl]-[1,2,4]triazolo[5,1-f]purin-2-one]
0.1 to 10 nM	Cc1ccc(N2CCN(CCn3c(=O)n(C)c4c3nc(N)n3nc(-c5ccco5)nc43)CC2)cc1 [Example A7, 5-Amino-8-(2-furyl)-1-methyl-3-[2-[4-(p-tolyl)piperazin-1-yl]ethyl]-[1,2,4]triazolo[5,1-f]purin-2-one]
0.1 to 10 nM	COCCOc1ccc(N2CCN(CCn3c(=O)n(C)c4c3nc(N)n3nc(-c5ccco5)nc43)CC2)cc1 [Example A1]
0.1 to 10 nM	Cn1c(=O)n(CCN2CCN(c3ccc(C(C)(C)O)cc3)CC2)c2nc(N)n3nc(-c4ccco4)nc3c21 [Example A13]
0.1 to 10 nM	CCOc1ccc(N2CCN(CCn3c(=O)n(CC4CC4)c4c3nc(N)n3nc(-c5ccco5)nc43)CC2)cc1 [Example C1, 5-Amino-1-(cyclopropylmethyl)-3-[2-[4-(4-ethoxyphenyl)piperazin-1-yl]ethyl]-8-(2-furyl)-[1,2,4]triazolo[5,1-f]purin-2-one]
0.1 to 10 nM	COc1ccc(N2CCN(CCn3c(=O)n(C)c4c3nc(N)n3nc(-c5ccco5)nc43)CC2)c(F)c1 [Example A9]
0.1 to 10 nM	Cn1c(=O)n(CCN2CCN(c3ccc(OC(F)F)cc3)CC2)c2nc(N)n3nc(-c4ccco4)nc3c21 [Example A58, 5-amino-3-[2-[4-[4-(difluoromethoxy)phenyl]piperazin-1-yl]ethyl]-8-(2-furyl)-1-methyl-[1,2,4]triazolo[5,1-f]purin-2-one]
